This test concerns Hep-G2 cells. The test is described as follows: Inhibition of cell proliferation of Hep-G2 cells (intracellular ATP, CellTiterGlo). The format is cell-based. The conditions noted are these: Homo sapiens, HepG2, 72 hours incubation, ATP content, read-out: IC 50 (μM)/HEP G2. How it is done:
The antitumoral activity of products 1 to 10 was determined by measuring the inhibition of cell proliferation of Hep-G2 cells. The cells are subcultured in a cell culture medium at a concentration of 1000 cells per well, and incubated for 4 hours at 37° C. and 5% CO2.
Medium used for the Hep-G2 and HCT-116 cell culture: Dubelcco's modified Eagle's medium/Ham mixture F12 (Gibco); NEAA (10%; nonessential amino acids, Gibco); sodium pyruvate (1%, Gibco); L-glutamine (1%, Gibco); fetal calf serum (5%; PAA).
After 4 hours, the test products dissolved in a DMSO/cell culture medium mixture are added at various concentrations and the resulting mixtures are incubated for 72 hours at 37° C. and 5% CO2. The intracellular ATP content was measured using the CellTiterGlo test reagent (Promega).
For orientation: Cellular ATP, detected with luciferase, serves as a proxy for viable cell number.
Regarding `CO[C@@H](C(=O)N[C@H]1CCCCN(Cc2ccc(-c3ccccc3)cc2)C1=O)[C@H](O)[C@@H](O)[C@H](O)C=NOCc1ccccc1` (racemic) [Ex 10, N—[(S)-1-(biphenyl-4-ylmethyl)-2-oxoperhydro-azepin-3-yl](2R,3R,4S,5S)-6-benzyloxyimino-3,4,5-trihydroxy-2-methoxyhexylamide], the IC50 is 18.3 µM.
As to `CO[C@@H](C(=O)NC1CCCCNC1=O)[C@H](O)[C@@H](O)[C@H](O)/C=C/C(C)C` (some centres unmarked) [Bengamide E, reference compound], the IC50 was found to be 7 µM.
Regarding `CO[C@@H](C(=O)NC1Cc2ccccc2CN(C)C1=O)[C@H](O)[C@@H](O)[C@H](O)/C=C/C(C)(C)C` (stereo partly drawn) [Ex 1, N-(2-Methyl-3-oxo-2,3,4,5-tetrahydro-1H-2-benzazepin-4-yl)-(E)-(2R,3R,4S,5R)-3,4,5-trihydroxy-2-methoxy-8,8-dimethylnon-6-enamide], the IC50 is 0.17 µM.
With `CO[C@@H](C(=O)N[C@H]1CCCCN(Cc2ccc(-c3ccccc3)cc2)C1=O)[C@H](O)[C@@H](O)[C@H](O)/C=C/C(C)(C)C` [Ex 2, N—[(S)-1-(biphenyl-4-ylmethyl)-2-oxoperhydroazepin-3-yl]-(E)-(2R,3R,4S,5R)-3,4,5-trihydroxy-2-methoxy-8,8-dimethylnon-6-enamide] the figure was 1.3 µM.
In the case of `CO[C@@H](C(=O)NC1CN(c2ccccc2)C1=O)[C@H](O)[C@@H](O)[C@H](O)/C=C/C(C)(C)C` (stereo partly drawn) [Ex 3, N-(2-Oxo-1-phenylazetidin-3-yl)-(E)-(2R,3R,4S,5R)-3,4,5-trihydroxy-2-methoxy-8,8-dimethylnon-6-enamide], the IC50 amounted to 0.48 µM.
With `CO[C@@H](C(=O)NC1CCNC1=O)[C@H](O)[C@@H](O)[C@H](O)/C=C/C(C)(C)C` (stereo partly drawn) [Ex 4, N-(2-oxopyrrolidin-3-yl)-(E)-(2R,3R,4S,5R)-3,4,5-trihydroxy-2-methoxy-8,8-dimethylnon-6-enamide] the figure was 3.1 µM; with `COC(=O)C1CC(NC(=O)[C@H](OC)[C@H](O)[C@@H](O)[C@H](O)/C=C/C(C)(C)C)C(=O)N1` (stereo partly drawn) [Ex 5, Methyl 5-oxo-4-((E)-(2R,3R,4S,5R)-3,4,5-tri-hydroxy-2-methoxy-8,8-dimethylnon-6-enoylamino)pyrrolidine-2-carboxylate], 26.7 µM.
As for `CO[C@@H](C(=O)NC1CCCNC1=O)[C@H](O)[C@@H](O)[C@H](O)/C=C/C(C)(C)C` (stereo partly drawn) [Ex 6, N-(2-oxopiperidin-3-yl)-(E)-(2R,3R,4S,5R)-3,4,5-trihydroxy-2-methoxy-8,8-dimethylnon-6-enamide], the IC50 came to 1.19 µM.
With `CO[C@@H](C(=O)NC1Cc2ccccc2NC1=O)[C@H](O)[C@@H](O)[C@H](O)/C=C/C(C)(C)C` (stereo partly drawn) [Ex 7, N-(2-oxo-1,2,3,4-tetrahydroquinolin-3-yl)-(E)-(2R,3R,4S,5R)-3,4,5-trihydroxy-2-methoxy-8,8-dimethylnon-6-enamide] the figure was 1.11 µM.
Consider `CO[C@@H](C(=O)NC1CSCCNC1=O)[C@H](O)[C@@H](O)[C@H](O)/C=C/C(C)(C)C` (stereo partly drawn) [Ex 8, N-(5-oxoperhydro-1,4-thiazepin-6-yl)-(E)-(2R,3R,4S,5R)-3,4,5-trihydroxy-2-methoxy-8,8-dimethylnon-6-enamide], for which the IC50 was 0.83 µM.
With `CO[C@@H](C(=O)N[C@H]1Cc2ccccc2[C@H]2CCCCN2C1=O)[C@H](O)[C@@H](O)[C@H](O)/C=C/C(C)(C)C` [Ex 9, N-((7S,12bR)-6-oxo-1,2,3,4,6,7,8,12b-octa-hydropyrido[2,1-a][2]benzazepin-7-yl)-(E)-(2R,3R,4S,5R)-3,4,5-trihydroxy-2-methoxy-8,8-dimethylnon-6-enamide] the figure was 3.6 µM.

Source of the values: patent US7550453B2, “2-alkoxy-3,4,5-trihydroxy-alkylamides, preparation thereof, compositions containing them and use thereof” (Aventis Pharma SA, priority 2004, dated 2009).
